# Measurements taken from EP0194571A1, “Heterocyclic disulfides, process for their preparation and pharmaceutical preparations containing them” (HOECHST AKTIENGESELLSCHAFT, priority 1985, dated 1986).
# How the values were obtained:
# Assay type in all cases: in vivo, NMRI-Mäuse
# [1] = tested on: Maus-Peritonealmakrophagen; experiment: Activation of mononuclear phagocytes: oxidative metabolism (chemiluminescence) of peritoneal macrophages from treated mice; details: relative to maximal activation by compound of Beispiel 8 = 100 %; 100 mg/kg i.p.
# Protocol: (§1) Hier wurde der Einfluß der nach Ausführungsbeispiel 8 erhaltenen Prüfsubstanz auf die Stimulation von Peritonealmakrophagen bei 6- 8 Wochen alten NMRI-Mäusen untersucht. Mäuseweibchen erhielten auf parenteralem oder oralem Wege die Prüfsubstanz in einer Dosis von 25 mg/kg, 50 mg/kg, 100 mg/kg und 200 mg/kg. Der Kontrollgruppe wurde gepufferte Kochsalzlösung verabreicht. Drei Tage nach den Injektionen wurden die Mäuse getötet, und es wurden die Peritonealmakrophagen der Tiere auf ihren Aktivierungszustand hin untersucht. Als Maß der Makrophagenaktivierung wurde zum einen die Sekretion der lyosomalen Enzyme (ß-Galactosidase, ß-Glucuronidase, N-Acetyl-ß-D-Glucosaminidase) bestimmt. Auf der anderen Seite konnte in vergleichbaren Makrophagenkulturen die Pinozytose durch die Aufnahme von kolloidalem Gold (^19^8Au) - wie sie dem Fachmann bekannt ist - untersucht werden. Die Höhe des oxidativen Stoffwechsels bei Makrophagen gilt als ein weiteres Maß für ihren Aktivierungszustand. Gemessen wird diese Aktivität unter Zuhilfenahme des Biolumaten durch Bestimmung der Chemolumineszenz.
# (§2) Zu diesem Zweck wurden entweder in Petrischalen von 30 mm Durchmesser 3 x 10^6 Makrophagen mit 1 ml TC 199-Kulturmedium oder aber 10^6 Makrophagen mit 100 µl in Rundbogen-Polyäthylen-Röhrchen (zur Bestimmung der Chemolumineszenz) bei 5 % G02 und 37°C kultiviert.
# (§3) Nach einstündiger Bebrütung wurden die Kulturen gewaschen, um schwimmende Zellen zu entfernen. Die Chemolumineszenz (Röhrchenkultur) wurde dann direkt bestimmt, während die Petrischalen erneut 24 Stunden bei 37°C bebrütet wurden und danach die Enzym- und Pinozytoseaktivität in den Kulturen bestimmt wurde. Es wurden die nachstehenden Ergebnisse erzielt.
# Die parenterale sowie die orale Behandlung von NMRI-Mäusen mit der gemäß Beispiel 8 hergestellten Prüfsubstanz stimuliert die Makrophagenaktivität und hat damit eine immunitätstimulierende Wirkung. So wird der oxidative Stoffwechsel bei Makrophagen mit der Generierung von Sauerstoffradikalen und dem damit verbundenen meßbaren Licht deutlich erhöht. Bei Dosierungen von 25 mg/kg aufwärts kommt es zu einer dosisabhänigen Steigerung der Makrophagenaktivität sowohl bei parenteraler als auch oraler Applikation.
# (§4) Wie im Experiment 2 beschrieben, wurden NMRI-Mäuse mit den erfindungsgemäßen Verbindungen behandelt.
# (§5) Als Test zur Erfassung der Immunstimulation wurde die Funktion der Makrophagen (Chemolumineszenz und Enzymaktivität) überprüft.
# (§6) Tabelle 8 zeigt die relative Wirksamkeit der Prüfsubstanzen bezogen auf die Verbindung aus Beispiel 8, deren maximale Aktivierung (Differenz zwischen Kontrolle und Stimulation) 100 % entspricht. Der Tabelle ist zu entnehmen, daß im Vergleich zu Makrophagen aus unbehandelten Tieren, diese Zellen auch durch alle Prüfsubstanzen in ihrer Chemolumineszenzreaktion stark stimuliert und in ihrem Gehalt an lysosomalen Enzymen deutlich erhöht waren.
# [2] = tested on: Maus-Peritonealmakrophagen; experiment: Activation of mononuclear phagocytes: release of lysosomal hydrolases (exocytosis) by peritoneal macrophages from treated mice; details: lysosomal enzyme activity, relative to maximal activation by compound of Beispiel 8 = 100 %; 100 mg/kg i.p.
# Protocol: as §1, §2, §3
# Aus der Tabelle 3 ist zu entnehmen, daß Makrophagen von Kontrollmäusen nur geringe Mengen an lysosomalen Enzymen (ß-Glucuronidase, ß-Galactosidase, N-Acetyl-ß-D-Glucosaminidase) in den Kulturüberstand abgeben. Mononukleare Phagozyten von Mäusen, die parenteral oder oral mit der Prüfsubstanz 72 Stunden behandelt wurde, sezernieren die o.a. sauren Hydrolasen (ß-Glu, ß-Gal, N-Ac-Glu) deutlich mehr und weisen damit eine Dosiswirkungskurve auf, die bei allen gemessenen Enzymen eine Überlegenheit gegenüber den Kontrollen erkennen läßt. Es ist ersichtlich, daß die Prüfsubstanz eine stimulierende Wirkung auf die Makrophagenaktivität besitzt und zur Erhöhung der Enzymfreisetzung beiträgt.
# as §4, §5, §6
# [3] = tested on: zelluläre Immunantwort (DTH-Reaktion) gegen Schafserythrozyten; experiment: Delayed type hypersensitivity (DTH) reaction against sheep erythrocytes, foot swelling in mice; details: relative to maximal activation by compound of Beispiel 8 = 100 %, 1 x i.p. Tag 0
Structure (SMILES),Makrophagenaktivität Chemolumineszenz [1] [%],Makrophagenaktivität Exozytose [2] [%],DTH-Reaktion (SRBC) ([3]; Dosis 100 mg/kg) [%],DTH-Reaktion (SRBC) ([3]; Dosis 10 mg/kg) [%],DTH-Reaktion (SRBC) ([3]; Dosis 20 mg/kg) [%],DTH-Reaktion (SRBC) ([3]; Dosis 200 mg/kg) [%]
"Cc1sc(SSc2nc(CC(=O)O)c(C)s2)nc1CC(=O)O [Beispiel 14, Bis-(4-Carboxymethyl-5-methyl-thiazol-2-yl)-disulfid]",97,93,118,,,
"O=C(O)Cc1csc(SSc2nc(CC(=O)O)cs2)n1 [Beispiel 10, Bis-(4-Carboxymethyl-1,3-thiazol-2-yl)-disulfid]",66,21,,112,,
"Oc1nc(SSc2nc(O)nn2-c2ccccc2)n(-c2ccccc2)n1 [Beispiel 1, Bis-(3-Hydroxy-1-phenyl-1,2,4-triazol-5-yl)-disulfid]",30,48,,,,
"O=C(O)c1ccc2nc(SSc3nc4ccc(C(=O)O)cc4[nH]3)[nH]c2c1 [Beispiel 2, Bis-(5-Carboxy-benzimidazol-2-yl)-disulfid]",72,53,,,88,
"O=C(O)c1cnc(SSc2ncc(C(=O)O)s2)s1 [Beispiel 12, Bis-(5-Carboxy-1,3-thiazol-2-yl)-disulfid]",39,54,96,,,
Cn1nc(O)c(=O)nc1SSc1nc(=O)c(O)nn1C [Beispiel 6],26,33,100,,,
Cc1nc(SSc2nc(C)c(C(=O)O)s2)sc1C(=O)O [Beispiel 13],81,77,,,,147
C=C(Cl)Cn1c(SSc2nnc(O)c(=O)n2CC(=C)Cl)nnc(O)c1=O [Beispiel 5],37,45,,,,61
